Like-named read-outs stand apart in the source and are kept apart here. Starred links: 1 amine or outer side, 2 acyl side, 3 side chain; linkers in the order of their positions; H or OH if unused. Positions of bridges follow the written chain, without caps; N, C: chain ends. Non-standard residues stand in square brackets, D forms with d. Residues, ends and D or L forms follow the SMILES beside them. *: point of attachment. Trp(7-(3-AcNH-Ph)) = CC(=O)Nc1cccc(-c2cccc3c(C[C@H](N)C(=O)O)c[nH]c23)c1; X27 = C[N+](C)(C)CCc1cn(-c2ccc(C[C@H](N[*:1])C(=O)[*:2])cc2)nn1; X64 = C[N+]1(C)CCN(c2ccc(C[C@H](N[*:1])C(=O)[*:2])cc2)CC1; Me3N+(CH2)2O(CH2)2O(CH2)2CO = C[N+](C)(C)CCOCCOCCC(=O)*; Trp(7-Me) = Cc1cccc2c(C[C@H](N)C(=O)O)c[nH]c12; dLys(Me3) = C[N+](C)(C)CCCC[C@@H](N)C(=O)O; 3Pal(5-Me) = Cc1cncc(C[C@H](N)C(=O)O)c1; Dab(NMeAc) = CC(=O)N(C)CC[C@H](N)C(=O)O; 2Nal = N[C@@H](Cc1ccc2ccccc2c1)C(=O)O; AEF = NCCOc1ccc(C[C@H](N)C(=O)O)cc1; 3Pal = N[C@@H](Cc1cccnc1)C(=O)O; Ethyl(2-guanidino) = N=C(N)NCC*; Lys(Me) = CNCCCC[C@H](N)C(=O)O; Pen = CC(C)(S)[C@H](N)C(=O)O; Thp = NC1(C(=O)O)CCOCC1; X3 = C[N+](C)(C)CCCCC*; Sar = CNCC(=O)O
Key:
[1] = Exposed Polar Surface Area (EPSA); format: physicochemical; conditions: SFC on Chirex 3014 column, sample 1 mM DMSO stock
How it was run: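 Compounds, as 1 mM DMSO stock, were injected in duplicate onto an SFC Chirex 3014 column at 35 °C and eluted with a CO2/methanol (20 mM ammonium formate) gradient. EPSA values in Å^2 were derived from retention times using a linear fit to eight calibration standards, reinjected every 20 compounds.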

IL-23R = molecular target: T1, IL-23R (Homo sapiens, UniProt Q5VWK5); test: IL23R Reporter Assay; format: cell-based; conditions: HEK293 cells containing IL-23R, IL-12RP1 and STAT-inducible firefly luciferase reporter; 10 ng/mL IL-23 (EC90); 5 h at 37° C.; read-out: IL23R Reporter Assay
T1 construct: host or cells: HEK293
T1 sequence (Q5VWK5 24-629): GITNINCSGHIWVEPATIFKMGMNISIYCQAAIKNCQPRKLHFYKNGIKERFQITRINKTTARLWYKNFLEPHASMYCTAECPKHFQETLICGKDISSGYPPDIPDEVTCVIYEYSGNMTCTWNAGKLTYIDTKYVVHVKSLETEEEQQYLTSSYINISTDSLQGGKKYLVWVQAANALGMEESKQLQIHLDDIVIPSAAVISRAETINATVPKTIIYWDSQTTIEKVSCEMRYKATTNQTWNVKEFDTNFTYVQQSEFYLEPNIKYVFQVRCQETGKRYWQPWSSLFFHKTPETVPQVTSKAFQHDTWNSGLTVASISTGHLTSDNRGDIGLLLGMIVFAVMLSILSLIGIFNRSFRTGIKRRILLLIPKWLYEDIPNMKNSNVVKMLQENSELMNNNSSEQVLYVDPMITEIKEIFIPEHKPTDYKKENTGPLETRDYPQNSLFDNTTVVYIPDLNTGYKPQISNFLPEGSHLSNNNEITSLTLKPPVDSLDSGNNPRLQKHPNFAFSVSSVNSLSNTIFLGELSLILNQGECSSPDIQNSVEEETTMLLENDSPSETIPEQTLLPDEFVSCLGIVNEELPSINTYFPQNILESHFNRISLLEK

Compound	EPSA ([1]; read-out: EPSA) [A^2]	IC50 (IL-23R) [nM]	EPSA [1] [Å^2]
CC(=O)N(C)CCCC[C@@H]1NC(=O)[C@H](Cc2c[nH]c3c(C)cccc23)NC(=O)[C@H]([C@@H](C)O)NC(=O)[C@H](CC(=O)N(C)C)NC(=O)[C@@H](NC(=O)CCOCCOCC[N+](C)(C)C)C(C)(C)SSC(C)(C)[C@@H](C(=O)N[C@@H](Cc2ccc(-n3cc(CC[N+](C)(C)C)nn3)cc2)C(=O)N[C@@H](Cc2ccc3ccccc3c2)C(=O)NC2(C(=O)N[C@@H](CCCCN(C)C(C)=O)C(=O)N[C@@H](CC(N)=O)C(=O)N[C@@H](Cc3cccnc3)C(=O)N(C)CC(=O)N(C)C)CCOCC2)NC1=O [compound 333, cPEG3aCO-Pen(3)-N(N(Me)2)-T-7MeW-K(NMeAc)-Pen(3)-F(4TzlTMA2)-2Nal-THP-K(NMeAc)-N-3Pya-Sar-CON(Me)2] ({Me3N+(CH2)2O(CH2)2O(CH2)2CO}-[Pen]D(NMe2)T[Trp(7-Me)][Lys(Me)](Ac)[Pen][X27][2Nal][Thp][Lys(Me)](Ac)N[3Pal][Sar]-NMe2; disulfide 1-6)	159	1.8	–
Cc1cccc2c(C[C@@H]3NC(=O)[C@H]([C@@H](C)O)NC(=O)[C@H](CC(N)=O)NC(=O)[C@@H](NC(=O)CCOCCOCC[N+](C)(C)C)C(C)(C)SSC(C)(C)[C@@H](C(=O)N[C@@H](Cc4ccc(OCCN)cc4)C(=O)N[C@@H](Cc4ccc5ccccc5c4)C(=O)NC4(C(=O)N[C@@H](CCC(=O)N(C)C)C(=O)N[C@@H](CC(N)=O)C(=O)N[C@@H](Cc5cccnc5)C(=O)N(C)CC(=O)N(C)C)CCOCC4)NC(=O)[C@H](CCC(=O)N(C)C)NC3=O)c[nH]c12 [compound 156, cPEG3aCO-Pen(3)-N-T-7MeW-Q(N(Me)2)-Pen(3)-AEF-2Nal-THP-Q(N(Me)2)-N-3Pya-Sar-CON(Me)2] ({Me3N+(CH2)2O(CH2)2O(CH2)2CO}-[Pen]NT[Trp(7-Me)]E(NMe2)[Pen][AEF][2Nal][Thp]E(NMe2)N[3Pal][Sar]-NMe2; disulfide 1-6)	155	2	–
CC(=O)N(C)CCCC[C@@H]1NC(=O)[C@H](Cc2c[nH]c3c(C)cccc23)NC(=O)[C@H]([C@@H](C)O)NC(=O)[C@H](CC(=O)N(C)C)NC(=O)[C@@H](NC(=O)CCOCCOCC[N+](C)(C)C)C(C)(C)SSC(C)(C)[C@@H](C(=O)N[C@@H](Cc2ccc(N3CC[N+](C)(C)CC3)cc2)C(=O)N[C@@H](Cc2ccc3ccccc3c2)C(=O)NC2(C(=O)N[C@@H](CCCCN(C)C(C)=O)C(=O)N[C@@H](CC(N)=O)C(=O)N[C@@H](Cc3cccnc3)C(=O)N(C)CC(=O)N(C)C)CCOCC2)NC1=O [compound 273, cPEG3aCO-Pen(3)-N(N(Me)2)-T-7MeW-K(NMeAc)-Pen(3)-PiperazinequatF-2Nal-THP-K(NMeAc)-N-3Pya-Sar-CON(Me)2] ({Me3N+(CH2)2O(CH2)2O(CH2)2CO}-[Pen]D(NMe2)T[Trp(7-Me)][Lys(Me)](Ac)[Pen][X64][2Nal][Thp][Lys(Me)](Ac)N[3Pal][Sar]-NMe2; disulfide 1-6)	157	2.6	–
CC(=O)N(C)CCCC[C@@H]1NC(=O)[C@H](Cc2c[nH]c3c(C)cccc23)NC(=O)[C@H]([C@@H](C)O)NC(=O)[C@H](CC(=O)N(C)C)NC(=O)[C@@H](NC(=O)CCOCCOCC[N+](C)(C)C)C(C)(C)SSC(C)(C)[C@@H](C(=O)N[C@@H](Cc2ccc(OCCN)cc2)C(=O)N[C@@H](Cc2ccc3ccccc3c2)C(=O)NC2(C(=O)N[C@@H](CCN(C)C(C)=O)C(=O)N[C@@H](CC(N)=O)C(=O)N[C@@H](Cc3cccnc3)C(=O)N(C)CC(=O)N(C)C)CCOCC2)NC1=O [compound 177, cPEG3aCO-Pen(3)-N(N(Me)2)-T-7MeW-K(NMeAc)-Pen(3)-AEF-2Nal-THP-Dab(NMeAc)-N-3Pya-Sar-CON(Me)2] ({Me3N+(CH2)2O(CH2)2O(CH2)2CO}-[Pen]D(NMe2)T[Trp(7-Me)][Lys(Me)](Ac)[Pen][AEF][2Nal][Thp][Dab(NMeAc)]N[3Pal][Sar]-NMe2; disulfide 1-6)	149	2	–

Second part, the compound after the results:

EPSA ([1]; read-out: EPSA) [A^2]	IC50 (IL-23R) [nM]	EPSA [1] [Å^2]	Compound
154	3.4	–	CNC(=O)C[C@H](NC(=O)[C@H](CCCCN(C)C(C)=O)NC(=O)C1(NC(=O)[C@H](Cc2ccc3ccccc3c2)NC(=O)[C@H](Cc2ccc(OCCCCC[N+](C)(C)C)cc2)NC(=O)[C@H]2NC(=O)[C@H](CCCCN(C)C(C)=O)NC(=O)[C@H](Cc3c[nH]c4c(C)cccc34)NC(=O)[C@H]([C@@H](C)O)NC(=O)[C@H](CC(=O)N(C)C)NC(=O)[C@@H](NC(=O)CCOCCOCC[N+](C)(C)C)C(C)(C)SSC2(C)C)CCOCC1)C(=O)N[C@@H](Cc1cccnc1)C(=O)N(C)CC(=O)N(C)C [compound 560, cPEG3aCO-Pen(3)-N(N(Me)2)-T-7MeW-K(NMeAc)-Pen(3)-TMAPF-2Nal-THP-k(NMeAc)-N(NMe)-3Pya-Sar-CON(Me)2] ({Me3N+(CH2)2O(CH2)2O(CH2)2CO}-[Pen]D(NMe2)T[Trp(7-Me)][Lys(Me)](Ac)[Pen]Y(X3)[2Nal][Thp][Lys(Me)](Ac)D(NHMe)[3Pal][Sar]-NMe2; disulfide 1-6)
169	3.8	–	CC(=O)NCCCC[C@@H]1NC(=O)[C@H](Cc2c[nH]c3c(-c4cccc(NC(C)=O)c4)cccc23)NC(=O)[C@H]([C@@H](C)O)NC(=O)[C@H](CC(N)=O)NC(=O)[C@@H](NC(C)=O)C(C)(C)SSC(C)(C)[C@@H](C(=O)N[C@@H](Cc2ccc(OCCCCC[N+](C)(C)C)cc2)C(=O)N[C@@H](Cc2ccc3ccccc3c2)C(=O)NC2(C(=O)N[C@@H](CCCCN(C)C(C)=O)C(=O)N[C@@H](CC(N)=O)C(=O)N[C@@H](Cc3cncc(C)c3)C(=O)N(C)CC(N)=O)CCOCC2)NC1=O [compound 502, MeCO-Pen(3)-N-T-7(3NAcPh)W-K(Ac)-Pen(3)-TMAPF-2Nal-THP-K(NMeAc)-N-5MePyridinAla-Sar-CONH2]
179	2	–	CC(=O)NCCCC[C@@H]1NC(=O)[C@H](Cc2c[nH]c3c(C)cccc23)NC(=O)[C@H]([C@@H](C)O)NC(=O)[C@H](CC(N)=O)NC(=O)[C@@H](NC(=O)[C@@H](CCCNC(=N)N)NC(C)=O)C(C)(C)SSC(C)(C)[C@@H](C(=O)N[C@@H](Cc2ccc(OCCCCC[N+](C)(C)C)cc2)C(=O)N[C@@H](Cc2ccc3ccccc3c2)C(=O)NC2(C(=O)N[C@@H](CCC(=O)O)C(=O)N[C@@H](CC(N)=O)C(=O)N[C@@H](Cc3cncc(C)c3)C(=O)N(C)CC(N)=O)CCOCC2)NC1=O [compound 543, MeCO-r-Pen(3)-N-T-7MeW-K(Ac)-Pen(3)-TMAPF-2Nal-THP-E-N-5MePyridinAla-Sar-CONH2] (Ac-[dR][Pen]NT[Trp(7-Me)]K(Ac)[Pen]Y(X3)[2Nal][Thp]EN[3Pal(5-Me)][Sar]-NH2; disulfide 2-7)
–	3.7	165.96	CC(=O)NCCCC[C@@H]1NC(=O)[C@H](Cc2c[nH]c3c(C)cccc23)NC(=O)[C@H]([C@@H](C)O)NC(=O)[C@H](CC(N)=O)NC(=O)[C@@H](NC(C)=O)C(C)(C)SSC(C)(C)[C@@H](C(=O)N[C@@H](Cc2ccc(OCC3CCC([N+](C)(C)C)CC3)cc2)C(=O)N[C@@H](Cc2ccc3ccccc3c2)C(=O)NC2(C(=O)N[C@@H](CCCCNC(C)=O)C(=O)N[C@@H](CC(N)=O)C(=O)N[C@@H](Cc3cccnc3)C(=O)N(C)CC(N)=O)CCOCC2)NC1=O (single isomer, unassigned) [compound 531, MeCO-Pen(3)-N-T-7MeW-K(Ac)-Pen(3)-ACHMF(R*, S*)-2Nal-THP-K(Ac)-N-3Pya-Sar-CONH2]
198	54	–	CC(=O)NCCCC[C@@H]1NC(=O)[C@H](Cc2c[nH]c3c(C)cccc23)NC(=O)[C@H]([C@@H](C)O)NC(=O)[C@H](CC(N)=O)NC(=O)[C@@H](NC(=O)COc2ccc(-c3ccc(F)cc3F)cc2C(=O)O)C(C)(C)SSC(C)(C)[C@@H](C(=O)N[C@@H](Cc2ccc(OCCCCC[N+](C)(C)C)cc2)C(=O)N[C@@H](Cc2ccc3ccccc3c2)C(=O)NC2(C(=O)N[C@@H](CCCCNC(=O)CCCc3ccc(I)cc3)C(=O)N[C@@H](CC(N)=O)C(=O)N[C@@H](Cc3cccnc3)C(=O)N(C)CC(N)=O)CCOCC2)NC1=O [compound 524, DFNCO-Pen(3)-N-T-7MeW-K(Ac)-Pen(3)-TMAPF-2Nal-THP-K(IPB)-N-3Pya-Sar-CONH2]
194	1.5	–	CC(=O)NCCCC[C@@H]1NC(=O)[C@H](Cc2c[nH]c3c(-c4cccc(NC(C)=O)c4)cccc23)NC(=O)[C@H]([C@@H](C)O)NC(=O)[C@H](CC(N)=O)NC(=O)[C@@H](NC(=O)[C@@H](CCCC[N+](C)(C)C)NC(C)=O)C(C)(C)SSC(C)(C)[C@@H](C(=O)N[C@@H](Cc2ccc(OCCNC(=N)N)cc2)C(=O)N[C@@H](Cc2ccc3ccccc3c2)C(=O)NC2(C(=O)N[C@@H](CCC(=O)O)C(=O)N[C@@H](CC(N)=O)C(=O)N[C@@H](Cc3cccnc3)C(=O)N(C)CC(N)=O)CCOCC2)NC1=O [compound 563, MeCO-k(Me)3-Pen(3)-N-T-7(3NAcPh)W-K(Ac)-Pen(3)-AEF(G)-2Nal-THP-E-N-3Pya-Sar-CONH2] (Ac-[dLys(Me3)][Pen]NT[Trp(7-(3-AcNH-Ph))]K(Ac)[Pen]Y(Ethyl(2-guanidino))[2Nal][Thp]EN[3Pal][Sar]-NH2; disulfide 2-7)

From US20260022143A1, “Cyclic Peptide Inhibitors of IL-23” (JANSSEN PHARMACEUTICA NV, priority 2022, published 2026)
